Drawing on patent US20130197030A1, “Substituted 1,3-Dioxanes and There Uses” (Evolva Sa, priority 2007, published 2013), this text covers PPARγ binding for 1 compound.

The target of the experiment is T1, Human Recombinant (E. coli) PPARgamma (Homo sapiens, UniProt P37231).
T1 construct: host or cells: E. coli
T1 sequence (P37231 1-505): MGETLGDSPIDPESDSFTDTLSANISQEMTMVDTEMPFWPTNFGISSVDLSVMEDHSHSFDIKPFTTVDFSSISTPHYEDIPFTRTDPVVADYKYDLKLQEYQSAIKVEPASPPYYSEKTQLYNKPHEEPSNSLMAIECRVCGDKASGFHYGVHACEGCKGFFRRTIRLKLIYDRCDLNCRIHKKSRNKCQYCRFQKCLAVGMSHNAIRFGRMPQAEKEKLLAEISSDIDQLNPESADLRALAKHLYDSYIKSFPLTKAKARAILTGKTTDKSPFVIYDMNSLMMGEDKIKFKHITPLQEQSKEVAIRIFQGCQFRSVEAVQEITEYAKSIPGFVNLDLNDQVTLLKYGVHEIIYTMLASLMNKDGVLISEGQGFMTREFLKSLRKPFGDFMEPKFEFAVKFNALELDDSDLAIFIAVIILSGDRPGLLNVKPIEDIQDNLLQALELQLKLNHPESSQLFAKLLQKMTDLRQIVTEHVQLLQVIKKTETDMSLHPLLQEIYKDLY
Nature of the experiment: PPAR gamma binding assay. The note with it: at 30 μM. The protocol:
Incubation: 120 min. at 4° C.
The results are expressed as a percent of control specific binding ((measured specific binding/control specific binding)×100) obtained in the presence of the test compounds. The IC50 values (concentration causing a half-maximal inhibition of control specific binding) and Hill coefficients (nil) were determined by non-linear regression analysis of the competition curves generated with mean replicate values using Hill equation curve fitting (Y=D+[(A−D)/(1+(C/C50)nH)], where Y=specific binding, D=minimum specific binding, A=maximum specific binding, C=compound concentration, C50=IC50, and nH=slope factor). This analysis was performed using a software developed at Cerep (Hill software) and validated by comparison with data generated by the commercial software SigmaPlot 4.0 for Windows® (© 1997 by SPSS Inc.). The inhibition constants (Ki) were calculated using the Cheng Prusoff equation (Ki=IC50/(1+(L/KD)), where L=concentration of radioligand in the assay, and KD=affinity of the radioligand for the receptor).

In the case of `O=C(O)CC/C=C\C[C@H]1CO[C@@H](c2ccccc2Cl)O[C@H]1c1ccccc1O` [Compound B, (Z)-6-((2R,4R,5S)-2-(2-chlorophenyl)-4-(2-hydroxyphenyl)-1,3-dioxan-5-yl)hex-4-enoic acid, reference compound], the PPARγ binding result was “no binding”.
